Results reported in patent US20240109881A1, “Heteroaryl Compounds as Ligand Directed Degraders of IRAK4” (Bristol-Myers Squibb Company, priority 2022, published 2024).

The compounds below were run against T1, IRAK4 (Homo sapiens, UniProt Q9NWZ3) (assay: ALE THP1 HTRF (Advanced Lipoxidation End Product THP1 Homogeneous Time Resolved Fluorescence)). Details: THP1 cells.
T1 construct: endogenous in cells; host or cells: THP-1 cells
T1 sequence (Q9NWZ3 1-460): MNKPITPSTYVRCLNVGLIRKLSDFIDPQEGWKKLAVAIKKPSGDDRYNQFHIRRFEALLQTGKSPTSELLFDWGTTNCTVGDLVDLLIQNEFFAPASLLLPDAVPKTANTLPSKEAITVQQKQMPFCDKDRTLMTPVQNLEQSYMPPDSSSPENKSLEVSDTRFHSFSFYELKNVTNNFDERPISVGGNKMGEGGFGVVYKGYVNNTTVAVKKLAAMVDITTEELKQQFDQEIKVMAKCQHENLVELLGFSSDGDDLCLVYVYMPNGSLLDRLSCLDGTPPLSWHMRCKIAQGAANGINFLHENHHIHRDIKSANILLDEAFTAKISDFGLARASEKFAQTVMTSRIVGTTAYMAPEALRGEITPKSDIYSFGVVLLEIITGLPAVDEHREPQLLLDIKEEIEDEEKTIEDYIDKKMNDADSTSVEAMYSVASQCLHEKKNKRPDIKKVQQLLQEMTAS
Format: cell-based
Method in brief: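 Cells lysed 45 min at room temperature; lysates normalized to total protein by BCA. Total IRAK4 detected by HTRF sandwich (anti-IRAK4-d2 plus anti-IRAK4-cryptate), incubated overnight in the dark at room temperature, read on a time-resolved fluorescence plate reader.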

Compound | ALE THP1 HTRF YMIN [%] | EC50 [µM]
CC1(Nc2cc(-n3ncc4cc(C#N)cnc43)ncc2C(=O)NC2CCC(CCN3CCN(c4ccc(C5CCC(=O)NC5=O)cc4)CC3)CC2)CC1 (stereo not shown) [P-76] | 8.3 | 0.007
CC(Nc1cc(-n2ncc3cc(C#N)cnc32)ncc1C(=O)NC1CCC(CCN2CCN(c3ccc(C4CCC(=O)NC4=O)cc3)CC2)CC1)C(F)(F)F (stereo not shown) [P-77] | 11.3 | 0.028
C[C@@H](CO)Nc1cc(-n2ncc3cc(C#N)cnc32)ncc1C(=O)NC1CCC(CCN2CCN(c3ccc(C4CCC(=O)NC4=O)cc3)CC2)CC1 (stereo partly shown) [P-78] | 7.6 | 0.009
COc1cc(N2CCN(CCC3CCC(NC(=O)c4cnc(-n5ncc6cc(C#N)cnc65)cc4NC4CC4)CC3)CC2)ccc1C1CCC(=O)NC1=O (stereo not shown) [P-79] | 12.2 | 0.043
COc1cc(C2CCC(=O)NC2=O)ccc1N1CCN(CCC2CCC(NC(=O)c3cnc(-n4ncc5cc(C#N)cnc54)cc3NC3CC3)CC2)CC1 (stereo not shown) [P-80] | 7.3 | 0.026
CC(C)(C[C@H]1CC[C@H](NC(=O)c2cnc(-n3ncc4cc(C#N)cnc43)cc2NC2CCCC2)CC1)N1CCN(c2ccc(C3CCC(=O)NC3=O)cc2)CC1 (stereo partly shown) [P-81, 6-(5-cyano-1H-pyrazolo[3,4-b]pyridin-1-yl)-4-(cyclopentylamino)-N-((1r,4r)-4-(2-(4-(4-(2,6-dioxopiperidin-3-yl)phenyl)piperazin-1-yl)-2-methylpropyl)cyclohexyl)nicotinamide] | 10.7 | 0.073
N#Cc1cnc2c(cnn2-c2cc(NC3CCC3)c(C(=O)NC3CCC(CCN4CCN(c5ccc(C6CCC(=O)NC6=O)cc5)CC4)CC3)cn2)c1 (stereo not shown) [P-82] | 8.6 | 0.23
CC(C)(C)Nc1cc(-n2ncc3cc(C#N)cnc32)ncc1C(=O)NC1CCC(CCN2CCN(c3ccc(C4CCC(=O)NC4=O)cc3)CC2)CC1 (stereo not shown) [P-83] | 8.1 | 0.047
N#Cc1cnc2c(cnn2-c2cc(NC3CC3)c(C(=O)NC3CCC(CCN4CCN(c5ccc(C6CCC(=O)NC6=O)c(Cl)c5)CC4)CC3)cn2)c1 (stereo not shown) [P-84] | 9.7 | 0.035
N#Cc1cnc2c(cnn2-c2cc(NC3CC3)c(C(=O)NC3CCC(CCN4CCN(c5ccc(C6CCC(=O)NC6=O)nc5)CC4)CC3)cn2)c1 (stereo not shown) [P-85] | 11.7 | 0.117
CNc1cc(-n2ncc3cc(C#N)cnc32)ncc1C(=O)NC1CCC(CCN2CCN(c3ccc(C4CCC(=O)NC4=O)cc3)CC2)CC1 (stereo not shown) [P-86] | 11.8 | 0.09
N#Cc1cnc2c(cnn2-c2cc(NC3CCCC3)c(-n3cc([C@H]4CC[C@H](CCN5CCN(c6ccc(C7CCC(=O)NC7=O)cc6)CC5)CC4)nn3)cn2)c1 (stereo partly shown) [P-87, 1-[4-(cyclopentylamino)-5-[4-[4-[2-[4-[4-(2,6-dioxo-3-piperidyl)phenyl]piperazin-1-yl]ethyl]cyclohexyl]triazol-1-yl]-2-pyridyl]pyrazolo[3,4-b]pyridine-5-carbonitrile] | 10.5 | 0.026
N#Cc1cnc2c(cnn2-c2cc(NC3CC3)c(C(=O)N[C@H]3CC[C@H](OCC4CCN(c5ccc(C6CCC(=O)NC6=O)cc5)CC4)CC3)cn2)c1 (stereo partly shown) [P-88] | 64.5 | 0.049
N#CCNc1cc(-n2ncc3cc(C#N)cnc32)ncc1C(=O)NC1CCC(CCN2CCN(c3ccc(C4CCC(=O)NC4=O)cc3)CC2)CC1 (stereo not shown) [P-89] | 10.3 | 0.023
N#Cc1cnc2c(cnn2-c2cc(NC3CC3)c(C(=O)N[C@H]3CC[C@H](CCN4CCC5(CC4)CN(c4cccc(C6CCC(=O)NC6=O)c4)C5)CC3)cn2)c1 (stereo partly shown) [P-90] | 11.6 | 0.028
C[C@H](C#N)Nc1cc(-n2ncc3cc(C#N)cnc32)ncc1C(=O)N[C@H]1CC[C@H](CCN2CCN(c3ccc(C4CCC(=O)NC4=O)cc3)CC2)CC1 (stereo partly drawn) [P-91, 6-(5-Cyano-1H-pyrazolo[3,4-b]pyridin-1-yl)-4-(((R)-1-cyanoethyl)amino)-N-((1r,4r)-4-(2-(4-(4-(2,6-dioxopiperidin-3-yl)phenyl)piperazin-1-yl)ethyl)cyclohexyl)nicotinamide] | 7.0 | 0.005
N#Cc1cnc2c(cnn2-c2cc(NC34CC(C3)C4)c(C(=O)NC3CCC(CCN4CCN(c5ccc(C6CCC(=O)NC6=O)cc5)CC4)CC3)cn2)c1 (stereo not shown) [P-92] | 11.3 | 0.038
N#Cc1cnc2c(-c3cc(NC4CC4)c(C(=O)NC4CCC(CCN5CCN(c6ccc(C7CCC(=O)NC7=O)cc6)CC5)CC4)cn3)cnn2c1 (stereo not shown) [P-93] | 13.0 | 0.023
N#Cc1cnc2c(cnn2-c2cc(NC3CC3)c(C(=O)NC3CCC(CCN4CCN(c5ccc([C@H]6CCC(=O)NC6=O)cc5)CC4)CC3)cn2)c1 (stereo partly shown) [P-95] | 9.9 | 0.015
N#Cc1cnc2c(cnn2-c2cc(NC3CC3)c(C(=O)NC3CCC(CCN4CCN(c5ccc([C@@H]6CCC(=O)NC6=O)cc5)CC4)CC3)cn2)c1 (stereo partly shown) [P-96] | 8.5 | 0.004
N#Cc1cnc2c(cnn2-c2cc(NC3CC(F)(F)C3)c(C(=O)NC3CCC(CCN4CCN(c5ccc(C6CCC(=O)NC6=O)cc5)CC4)CC3)cn2)c1 (stereo not shown) [P-97] | 15.1 | 0.088
N#Cc1cnc2c(cnn2-c2cc(NC3CC3)c(C(=O)NC3CCC(CCN4CCN(c5ccc(C6CCC(=O)NC6=O)cn5)CC4)CC3)cn2)c1 (stereo not shown) [P-98] | 10.5 | 0.017
N#Cc1cnc2c(cnn2-c2cc(NCCF)c(C(=O)NC3CCC(CCN4CCN(c5ccc(C6CCC(=O)NC6=O)cc5)CC4)CC3)cn2)c1 (stereo not shown) [P-99] | 10.7 | 0.022
N#Cc1cc2ccn(-c3cc(NC4CC4)c(C(=O)NC4CCC(CCN5CCN(c6ccc(C7CCC(=O)NC7=O)cc6)CC5)CC4)cn3)c2nc1F (stereo not shown) [P-100] | 28.3 | 1.1

Continued, values first:

ALE THP1 HTRF YMIN [%] | EC50 [µM] | Compound
24.6 | 0.092 | N#Cc1cnc2c(c1)c(F)cn2-c1cc(NC2CC2)c(C(=O)NC2CCC(CCN3CCN(c4ccc(C5CCC(=O)NC5=O)cc4)CC3)CC2)cn1 (stereo not shown) [P-101]
14.2 | 0.032 | N#Cc1cnc2c(cnn2-c2cc(NC3CC3)c(C(=O)NC3CCC(NCC4CCN(c5ccc(C6CCC(=O)NC6=O)cc5)CC4)CC3)cn2)c1 (stereo not shown) [P-102]
16.2 | 0.029 | CN(CC1CCN(c2ccc(C3CCC(=O)NC3=O)cc2)CC1)[C@H]1CC[C@H](NC(=O)c2cnc(-n3ncc4cc(C#N)cnc43)cc2NC2CC2)CC1 (stereo partly shown) [P-103, 6-(5-cyanopyrazolo[3,4-b]pyridin-1-yl)-4-(cyclopropylamino)-N-[4-[[1-[4-(2,6-dioxo-3-piperidyl)phenyl]-4-piperidyl]methyl-methyl-amino]cyclohexyl]pyridine-3-carboxamide]
16.0 | 0.047 | N#Cc1cnc2c(cnn2-c2cc(NC3CC3)c(C(=O)N[C@H]3CC[C@H](C(F)(F)CN4CCN(c5ccc(C6CCC(=O)NC6=O)cc5)CC4)CC3)cn2)c1 (stereo partly shown) [P-104, 6-(5-cyanopyrazolo[3,4-b]pyridin-1-yl)-4-(cyclopropylamino)-N-[4-[2-[4-[4-(2,6-dioxo-3-piperidyl)phenyl]piperazin-1-yl]-1,1-difluoro-ethyl]cyclohexyl]pyridine-3-carboxamide]
11.5 | 0.076 | N#Cc1cnc2c(cnn2-c2cc(NCC3CC3)c(C(=O)N[C@H]3CC[C@H](CCN4CCN(c5ccc(C6CCC(=O)NC6=O)cc5)CC4)CC3)cn2)c1 (stereo partly shown) [P-105]
17.5 | 0.246 | N#Cc1cnc2c(cnn2-c2cc(NC[C@H]3CCCO3)c(C(=O)N[C@H]3CC[C@H](CCN4CCN(c5ccc(C6CCC(=O)NC6=O)cc5)CC4)CC3)cn2)c1 (stereo partly shown) [P-106]
9.1 | 0.014 | CCCNc1cc(-n2ncc3cc(C#N)cnc32)ncc1C(=O)N[C@H]1CC[C@H](CCN2CCN(c3ccc(C4CCC(=O)NC4=O)cc3)CC2)CC1 (stereo partly shown) [P-107]
11.0 | 0.032 | CC(C)(O)CNc1cc(-n2ncc3cc(C#N)cnc32)ncc1C(=O)N[C@H]1CC[C@H](CCN2CCN(c3ccc(C4CCC(=O)NC4=O)cc3)CC2)CC1 (stereo partly shown) [P-108]
10.7 | 0.008 | N#Cc1cnn2c(-c3cc(NC4CC4)c(C(=O)N[C@H]4CC[C@H](CCN5CCN(c6ccc(C7CCC(=O)NC7=O)cc6)CC5)CC4)cn3)ccc2c1 (stereo partly shown) [P-109]
8.7 | 0.023 | N#Cc1cnc2c(cnn2-c2cc(NCC(F)(F)F)c(C(=O)N[C@H]3CC[C@H](CCN4CCN(c5ccc(C6CCC(=O)NC6=O)cc5)CC4)CC3)cn2)c1 (stereo partly shown) [P-112]
18.7 | 0.074 | N#Cc1cnc2c(cnn2-c2cc(NCC3CCCO3)c(C(=O)N[C@H]3CC[C@H](CCN4CCN(c5ccc(C6CCC(=O)NC6=O)cc5)CC4)CC3)cn2)c1 (stereo partly shown) [P-113]
46.1 | > 5 | O=C1CCC(c2ccc(N3CCN(CC[C@H]4CC[C@H](NC(=O)c5cnc(-n6ncc7cc(Cl)cnc76)cc5NC5CC5)CC4)CC3)cc2)C(=O)N1 (stereo partly shown) [P-114]
38.9 | > 5 | CC(C)(C#N)Nc1cc(-n2ncc3cc(C#N)cnc32)ncc1C(=O)N[C@H]1CC[C@H](CCN2CCN(c3ccc(C4CCC(=O)NC4=O)cc3)CC2)CC1 (stereo partly shown) [P-115]
8.3 | 0.007 | C[C@H]1CN(c2ccc(C3CCC(=O)NC3=O)cc2)C[C@H](C)N1CC[C@H]1CC[C@H](NC(=O)c2cnc(-n3ncc4cc(C#N)cnc43)cc2NC2CC2)CC1 (stereo partly shown) [P-116]
